From the supplement of paper PMC10331698
± gives the standard deviation of the averaged measurements.

How the values were obtained:
Test in all cases: level (log10 ratio to DMSO vehicle control); higher = higher biomarker level / cell amount than vehicle control
Conditions in all cases: in DMSO
[1] = compound: O=C(O)C(F)(F)C(F)(F)C(F)(F)C(F)(F)C(F)(F)C(F)(F)C(F)(F)C(F)(F)Cl [9-Chloro-perfluorononanoic acid]
Experimental: (§1)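 BioMAP Diversity Plus panel of 12 human primary cell co-culture systems (3C, 4H, LPS, SAg, BT, BF4T, BE3C, CASM3C, HDF3CGF, KF3CT, MyoF, Mphg). Compounds were added 1 h before stimulation and left for 24 h (MyoF 48 h; BT 72 h for soluble read-outs or 6 d for IgG). Biomarkers were read by ELISA, cytotoxicity by SRB, PBMC viability and proliferation by Alamar Blue. Each well value was divided by the mean of 8 DMSO control wells on the same plate and log10 transformed; duplicate blinded samples were tested at 4 concentrations.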

[2] = compound: O=C(O)C(F)(F)OC(F)(F)C(F)(F)OC(F)(F)C(F)(F)C(F)(F)C(F)(F)F [Perfluoro-3,6-dioxadecanoic acid]
Experimental: as §1

[3] = compound: O=C(O)C(F)(F)C(F)(F)C(F)(F)C(F)(F)C(F)(F)C(F)(F)C(F)(F)C(F)(F)C(F)(F)C(F)(F)C(F)(F)C(F)(F)F [Perfluorotridecanoic acid]
Experimental: as §1

[4] = compound: O=C(O)C(F)(F)C(F)(F)C(F)(F)C(F)(F)C(F)(F)C(F)(F)C(F)(F)C(F)(F)C(F)(F)C(F)(F)C(F)(F)C(F)(F)C(F)(F)F [Perfluorotetradecanoic acid]
Experimental: as §1

[5] = compound: O=S(=O)(O)C(F)(F)C(F)(F)C(F)(F)C(F)(F)C(F)(F)C(F)(F)C(F)(F)C(F)(F)F [Potassium perfluorooctanesulfonate]
Experimental: as §1

1-(Perfluorohexyl)octane = compound: CCCCCCCCC(F)(F)C(F)(F)C(F)(F)C(F)(F)C(F)(F)C(F)(F)F [1-(Perfluorohexyl)octane]
Experimental: as §1

Hexafluoroglutaric acid = compound: O=C(O)C(F)(F)C(F)(F)C(F)(F)C(=O)O [Hexafluoroglutaric acid]
Experimental: as §1

Test System | level (log10) ([1]; 6700 nM) | level (log10) ([1]; 20000 nM) | level (log10) ([2]; 6700 nM) | level (log10) ([2]; 20000 nM) | level (log10) ([2]; 60000 nM) | level (log10) ([3]; 1500 nM) | level (log10) ([3]; 4400 nM) | level (log10) ([3]; 13000 nM) | level (log10) ([3]; 40000 nM) | level (log10) ([4]; 6700 nM) | level (log10) ([4]; 20000 nM) | level (log10) ([5]; 6700 nM) | level (log10) ([5]; 20000 nM) | level (log10) ([5]; 60000 nM) | level (log10) (1-(Perfluorohexyl)octane; 6700 nM) | level (log10) (1-(Perfluorohexyl)octane; 20000 nM) | level (log10) (Hexafluoroglutaric acid; 6700 nM) | level (log10) (Hexafluoroglutaric acid; 20000 nM) | level (log10) (Hexafluoroglutaric acid; 60000 nM)
3C:CD106/VCAM-1 | -0.005 ± 0.0014 | -0.001 ± 0.021 | 0.0005 ± 0.013 | -0.0035 ± 0.019 | -0.0135 ± 0.021 | 0.0125 ± 0.012 | -0.0055 ± 0.016 | -0.0185 ± 0.019 | -0.0165 ± 0.018 | -0.014 ± 0.016 | -0.0155 ± 0.0078 | 0.001 ± 0.016 | 0.013 ± 0.023 | 0.0375 ± 0.037 | -0.009 ± 0.0057 | 0.0045 ± 0.0092 | 0.009 ± 0.018 | 0.004 ± 0.021 | -0.008 ± 0.0057
CASM3C:LDLR | -0.011 ± 0.013 | -0.0065 ± 0.0021 | 0.0015 ± 0.022 | -0.016 ± 0.0028 | -0.0065 ± 0.023 | -0.001 ± 0.013 | 0.013 ± 0.02 | 0.0105 ± 0.025 | -0.021 ± 0.0028 | -0.0135 ± 0.013 | -0.028 ± 0.014 | 0.021 ± 0.0014 | 0.0275 ± 0.019 | -0.0205 ± 0.036 | -0.0125 ± 0.00071 | 0.019 ± 0.014 | -0.009 ± 0.0099 | -0.0175 ± 0.026 | -0.015 ± 0.014
CASM3C:HLA-DR | 0.0085 ± 0.0035 | 0.0015 ± 0.012 | 0.002 ± 0.03 | 0.0015 ± 0.011 | 0.0245 ± 0.026 | 0.0015 ± 0.0092 | -0.0285 ± 0.035 | -0.0385 ± 0.013 | -0.085 ± 0.062 | -0.0195 ± 0.0078 | -0.022 ± 0.073 | -0.0015 ± 0.0021 | -0.035 ± 0.028 | -0.0235 ± 0.054 | -0.0155 ± 0.015 | -0.0125 ± 0.005 | 0.0165 ± 0.049 | -0.015 ± 0.045 | 0.0055 ± 0.019
HDF3CGF:M-CSF | -0.058 ± 0.041 | -0.089 ± 0.025 | -0.0555 ± 0.067 | -0.065 ± 0.011 | -0.152 ± 0.0078 | 0.016 | 0.0145 ± 0.049 | -0.029 ± 0.078 | -0.0295 ± 0.13 | 0.041 ± 0.038 | 0 ± 0.067 | 0.0165 ± 0.0078 | 0.012 ± 0.0014 | -0.151 ± 0.018 | -0.022 ± 0.031 | -0.0025 ± 0.021 | -0.0015 ± 0.013 | -0.006 ± 0.033 | -0.0285 ± 0.029
KF3CT:IL-1alpha | -0.0295 ± 0.042 | -0.056 ± 0.031 | 0.022 ± 0.0057 | -0.0495 ± 0.013 | -0.0295 ± 0.005 | -0.025 ± 0.0099 | -0.0435 ± 0.0035 | -0.074 ± 0.018 | -0.1075 ± 0.00071 | -0.0135 ± 0.081 | -0.0235 ± 0.054 | -0.0105 ± 0.016 | -0.0085 ± 0.026 | -0.029 ± 0.0028 | -0.009 ± 0.04 | 0.0175 ± 0.0092 | -0.021 ± 0.014 | 0.012 ± 0.013 | -0.0395 ± 0.012
BE3C:SRB | -0.0045 ± 0.0064 | -0.0805 ± 0.005 | -0.0015 ± 0.0064 | -0.0095 ± 0.013 | -0.0435 ± 0.022 | 0.0085 ± 0.019 | -0.0035 ± 0.0021 | -0.0055 ± 0.0078 | 0.0035 ± 0.0021 | -0.005 ± 0.0057 | 0.0035 ± 0.012 | -0.0075 ± 0.0021 | -0.245 ± 0.034 | -0.306 ± 0.033 | -0.0005 ± 0.0021 | 0.002 ± 0.0028 | 0.0035 ± 0.0035 | -0.005 | 0.0125 ± 0.012
lMphg:M-CSF | -0.0055 ± 0.0021 | -0.0045 ± 0.0021 | -0.027 ± 0.045 | -0.0395 ± 0.0035 | -0.0475 ± 0.026 | -0.005 ± 0.0057 | -0.006 ± 0.016 | 0.002 ± 0.0099 | -0.011 ± 0.0099 | -0.0065 ± 0.03 | -0.0175 ± 0.015 | -0.0005 ± 0.005 | -0.004 ± 0.0057 | 0.035 ± 0.016 | -0.0235 ± 0.021 | -0.0205 ± 0.036 | -0.028 ± 0.014 | -0.017 ± 0.0042 | -0.0175 ± 0.019
KF3CT:MMP-9 | -0.0345 ± 0.0021 | -0.106 ± 0.0071 | -0.012 ± 0.014 | 0.005 ± 0.034 | 0.0215 ± 0.0078 | 0.0045 ± 0.012 | -0.007 ± 0.0028 | -0.0155 ± 0.013 | -0.0265 ± 0.019 | -0.005 ± 0.0014 | 0.0065 ± 0.032 | -0.013 ± 0.0099 | -0.038 ± 0.0042 | -0.0735 ± 0.023 | -0.006 ± 0.024 | 0.0075 ± 0.029 | -0.001 ± 0.023 | 0.015 ± 0.021 | 0.005 ± 0.0099
BE3C:MMP-9 | 0.001 ± 0.014 | -0.04 ± 0.014 | -0.005 ± 0.0099 | 0.007 ± 0.031 | -0.0195 ± 0.0021 | -0.0105 ± 0.0035 | 0.0005 ± 0.023 | -0.0065 ± 0.0035 | -0.0235 ± 0.00071 | -0.033 ± 0.071 | -0.04 ± 0.065 | -0.0035 ± 0.012 | -0.13 ± 0.013 | -0.126 ± 0.024 | -0.0065 ± 0.0021 | -0.005 ± 0.0057 | -0.0035 ± 0.023 | -0.0025 ± 0.032 | 0.0145 ± 0.042
lMphg:CCL3/MIP-1alpha | 0.0205 ± 0.029 | 0.0045 ± 0.046 | -0.022 ± 0.064 | -0.0215 ± 0.049 | -0.0545 ± 0.054 | 0.0065 ± 0.023 | -0.0135 ± 0.013 | 0.004 ± 0.021 | 0.0345 ± 0.032 | -0.02 ± 0.042 | -0.004 ± 0.02 | -0.0105 ± 0.0035 | -0.0255 ± 0.0092 | -0.016 ± 0.02 | -0.022 ± 0.021 | 0.0035 ± 0.021 | -0.0025 ± 0.0078 | 0.0125 ± 0.015 | -0.024 ± 0.052
HDF3CGF:CXCL10/IP-10 | -0.06 ± 0.027 | -0.175 ± 0.0021 | -0.0505 ± 0.019 | -0.0745 ± 0.026 | -0.156 ± 0.04 | -0.0955 ± 0.063 | -0.234 ± 0.2 | -0.236 ± 0.098 | -0.235 ± 0.13 | 0.022 ± 0.0099 | -0.0585 ± 0.1 | -0.0815 ± 0.03 | -0.131 ± 0.06 | -0.313 ± 0.044 | -0.02 ± 0.041 | -0.03 ± 0.055 | 0.0035 ± 0.021 | -0.008 ± 0.0071 | -0.011 ± 0.037
KF3CT:TIMP-2 | -0.0205 ± 0.0021 | -0.0015 ± 0.0021 | -0.038 ± 0.0099 | -0.0255 ± 0.043 | -0.03 ± 0.024 | 0.0125 ± 0.016 | 0.028 ± 0.013 | 0.0165 ± 0.022 | 0.0295 ± 0.015 | 0.0455 ± 0.032 | 0.0065 ± 0.012 | -0.01 ± 0.013 | 0.002 ± 0.02 | 0.0145 ± 0.0078 | 0.004 ± 0.02 | -0.016 ± 0.011 | -0.026 ± 0.014 | -0.028 ± 0.0042 | -0.013 ± 0.011
MyoF:PAI-I | -0.0065 ± 0.0078 | -0.0185 ± 0.011 | 0.001 ± 0.0014 | -0.0005 ± 0.0092 | -0.015 ± 0.0057 | 0.013 ± 0.013 | -0.002 | -0.0035 ± 0.00071 | 0.012 ± 0.0085 | 0.0115 ± 0.0064 | 0.006 | 0.003 ± 0.025 | -0.006 ± 0.0014 | -0.0065 ± 0.0064 | -0.008 ± 0.0014 | -0.007 ± 0.0042 | -0.0025 ± 0.021 | -0.0035 ± 0.015 | 0.003
3C:CD62E/E-Selectin | -0.005 ± 0.0057 | 0.001 ± 0.017 | 0.0155 ± 0.043 | -0.001 ± 0.037 | 0.004 ± 0.052 | -0.0015 ± 0.019 | -0.0045 ± 0.0064 | -0.0005 ± 0.011 | -0.01 ± 0.018 | -0.0245 ± 0.029 | -0.0105 ± 0.00071 | -0.0025 ± 0.015 | 0.0195 ± 0.046 | 0.063 ± 0.035 | -0.0065 ± 0.011 | -0.02 ± 0.0071 | -0.0035 ± 0.053 | -0.002 ± 0.038 | 0.031 ± 0.014
HDF3CGF:Collagen I | -0.0595 ± 0.005 | -0.151 ± 0.0042 | -0.052 ± 0.011 | -0.0485 ± 0.0064 | -0.095 ± 0.13 | 0.0245 ± 0.1 | -0.017 ± 0.0071 | -0.0245 ± 0.044 | 0.0105 ± 0.013 | -0.0105 ± 0.076 | 0.016 ± 0.078 | 0.0215 ± 0.0064 | -0.0125 ± 0.0092 | -0.0295 ± 0.061 | 0.006 ± 0.0085 | -0.01 ± 0.1 | -0.03 ± 0.014 | -0.0385 ± 0.0078 | 0.0105 ± 0.071
